Experimental data published in US10351883B2, “Compounds for increasing lipid synthesis and storage” (NUtech Ventures, priority 2015, dated 2019).
Read-outs that look alike come from different tables or passages of the source.

System: Chlamydomonas reinhardtii
Test: 8-point dose response assay (0.25-30 μM)
Type: cell-based
Parameters: reference not given here
Settings: for Dose Response Assay 0.25 μM: 0.25 μM compound; for Dose Response Assay 0.625 μM: 0.625 μM compound; for Dose Response Assay 2.5 μM: 2.5 μM compound; for Dose Response Assay 5 μM: 5 μM compound; for Dose Response Assay 10 μM: 10 μM compound; for Dose Response Assay 15 μM: 15 μM compound; for Dose Response Assay 30 μM: 30 μM compound
Experimental: A large scale in vivo high throughput screen (HTS) was performed to identify small compounds that stimulate lipid production and accumulation using the model organism Chlamydomonas reinhardtii. The HTS employed a 384-well microplate format in which cells were allowed to grow in the presence of the test compounds at 10 μM final concentration for 72 hours.
The screening library included 43,736 compounds (ChemBridge, Corp). […] A sub-set of compounds were retested using an 8-point dose response assay (0.25-30 μM). Compounds were further assessed visually using a Nikon Ti-inverted microscope (60×) to reconfirm lipid droplet accumulation was induced.

[1] = 8-point dose response, Nile Red lipid accumulation
[2] = 1.25 μM compound, 8-point dose response, Nile Red lipid accumulation

Structure (SMILES)	Dose Response Assay 0.25 μM [1]	Dose Response Assay 0.625 μM [1]	Dose Response Assay 1.25 μM [2]	Dose Response Assay 2.5 μM [1]	Dose Response Assay 5 μM [1]	Dose Response Assay 10 μM [1]	Dose Response Assay 15 μM [1]	Dose Response Assay 30 μM [1]	Dose Response Assay 1.25 μM
Cc1c(C(=O)Nc2ccc(F)c(F)c2)cccc1[N+](=O)[O-] [Compound 17]	1.09	1.03	0.89	0.89	1.07	0.92	1.04	1.67	
Cc1ccc(C(=O)c2ccc(N3CCN(C)CC3)c([N+](=O)[O-])c2)cc1 [Compound 46]	1.23	0.96	0.94	1.61	2.31	2.75	2.63	1.78	
COc1cc(CN2CCN(Cc3ccccc3)CC2)cc(OC)c1 [Compound 99]	0.98	0.84		1.4	1.96	2.96	3.37	4.22	0.97
O=C1CC(N2CCc3ccccc3C2)C(=O)N1c1ccc([N+](=O)[O-])cc1 (stereo not drawn) [Compound 58]	1.06	0.94	1.14	0.90	1.22	1.15	1.42	1.56	
Fc1ccc(CN2CCN(c3ccccc3Cl)CC2)cc1 [Compound 69]	1.05	0.96		3.01	2.44	3.49	3.49	2.54	1.29
CCC1CCCCN1C(=O)c1ccc(Cl)cc1[N+](=O)[O-] (stereo not drawn) [Compound 57]	0.99	1.06	1.01	0.90	1.28	1.11	1.15	1.87	
Cc1cccc(N2CCN(Cc3ccc([N+](=O)[O-])cc3)CC2)c1C [Compound 5]	0.97	0.85	0.80	0.91	1.28	2.07	1.96	2.81	
Cl.Oc1ccccc1CNCCC12CC3CC(CC(C3)C1)C2 [Compound 148]	0.94	1.04	0.88	1.32	1.63	1.39	1.65	1.45	
Cc1c(NC(=O)COc2ccc(Br)cc2)cccc1[N+](=O)[O-] [Compound 47]	0.90	0.81	0.91	1.3	0.95	1.37	1.27	1.19	
COc1ccc(C(=O)NCCN2CCOCC2)cc1[N+](=O)[O-] [Compound 24]	1.13	0.87	0.84	0.97	0.99	1.18	1.19	1.25	
CCc1ccc(CN2CCN(c3ccccc3C)CC2)cc1 [Compound 84]	0.92	0.89		2.5	2.05	1.64	2.19	1.34	1
Cc1cccc(N2CCN(Cc3ccc([N+](=O)[O-])cc3)CC2)c1C [Compound 74]									0.80
Cc1c(C(=O)Nc2ccccc2C(=O)NCc2ccccc2)cccc1[N+](=O)[O-] [Compound 55]	1.3	1.77	2.01	2.27	2.23	2.04	2.26	2.77	
O=C(Nc1ccc([N+](=O)[O-])cc1)c1cccc(Cl)c1Cl [Compound 38]	1.06	1.38	1.23	2.23	2.64	2.94	2.61	2	
O=C(Nc1ccc(Cc2ccncc2)cc1)c1ccc([N+](=O)[O-])cc1Cl [Compound 37]	1.04	0.97	1.39	1.85	1.93	1.76	1.16	1.15	
Brc1ccc(CN2CCN(c3ccccc3)CC2)cc1 [Compound 86]	0.98	1.01		2.39	2.29	2.71	3.38	3.76	1.69
O=C(Nc1ccccc1C(=O)NCc1ccccc1)c1ccc([N+](=O)[O-])cc1 [Compound 53]	1.06	1.38	1.13	1.1	1.42	1.57	1.61	2.49	
COc1ccccc1N1CCN(Cc2ccc(Cl)cc2)CC1 [Compound 68]	1.07	1.05		2.15	2.1	1.95	2.74	2.03	1.28
C=CCn1c(SCC(=O)O)nnc1-c1ccc([N+](=O)[O-])cc1 [Compound 25]	1.15	1.13	0.99	1.02	1	1	1.33	1.34	
Oc1ccc(Cl)cc1CN1CCN(Cc2ccccc2)CC1 [Compound 107]	0.98	1.01		2.05	2.31	2.48	3.07	3.06	1.23
